Laboratory results taken from the supplement of paper PMC10627819.

How the values were obtained:
B. subtilis 168 = assay: Bliss interaction score (quartile over a dose matrix) (fitness difference); higher = more antagonism (negative = synergy)
Summary of the method: (§1)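 Values were capped at 1 after dividing OD595 at stationary-phase entry by the plate's robust no-drug mean. This ratio is fitness, and single-drug fitness was inferred from the combination data. The Bliss score is observed minus product-expected fitness, given as quartiles over technical, biological and donor/recipient replicates.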

S. pneumoniae D39V [1] = assay: as above
Summary of the method: as §1

S. aureus DSM 20231 = assay: as above
Summary of the method: as §1

S. aureus Newman = assay: as above
Summary of the method: as §1

S. pneumoniae D39V [2] = assay: fitness (endpoint OD595 vs no drug) (fraction); higher = more growth
Summary of the method: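 Fitness is computed from the optical density at which cultures reach stationary phase, divided by the robust mean of no-drug control wells. Any value above 1 is set to 1. Cultures started at OD595 0.01 in 384-well plates with TSB, LB Lennox or CY at 37 °C, and OD595 was read every 30 min for 14 h against a first-reading background.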
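Wherever Bliss interaction score (quartile over a dose matrix) is given: first quartile when negative (synergy) and third quartile when positive (antagonism).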

CCC[C@@H]1C[C@@H](C(=O)N[C@@H]([C@H]2O[C@H](SC)[C@H](O)[C@@H](O)[C@H]2O)[C@@H](C)O)N(C)C1 [Lincomycin] + CO[C@H]1/C=C/O[C@@]2(C)Oc3c(C)c(O)c4c(O)c(c(/C=N/N5CCN(C)CC5)c(O)c4c3C2=O)NC(=O)/C(C)=C\C=C\[C@H](C)[C@H](O)[C@@H](C)[C@@H](O)[C@@H](C)[C@H](OC(C)=O)[C@@H]1C [Rifampicin]
Settings	Bliss interaction score
B. subtilis 168	-0.0988
S. aureus DSM 20231	-0.0747
S. aureus Newman	0.0333
S. pneumoniae D39V [1]	-0.136

fitness, S. pneumoniae D39V [2], one replicate
Settings	first compound 0.2 µg/mL	first compound 0.4 µg/mL	first compound 0.8 µg/mL
partner 0.025 µg/mL	0.137	0.0822	0.0813
partner 0.2 µg/mL	0	0	0

fitness, S. pneumoniae D39V [2]
Settings	first compound 0.2 µg/mL	first compound 0.215 µg/mL	first compound 0.4 µg/mL	first compound 0.43 µg/mL	first compound 0.8 µg/mL	first compound 0.86 µg/mL
partner 0.05 µg/mL	–	–	0.0846	–	0.0947	0.185
partner 0.1 µg/mL	0.076	–	0.0641	–	0.0864	0.147
partner 0.2 µg/mL	–	0.26	–	0.221	–	0.131

CC[C@H]1OC(=O)[C@H](C)[C@@H](O[C@H]2C[C@@](C)(OC)[C@@H](O)[C@H](C)O2)[C@H](C)[C@@H](O[C@@H]2O[C@H](C)C[C@H](N(C)C)[C@H]2O)[C@](C)(OC)C[C@@H](C)C(=O)[C@H](C)[C@@H](O)[C@]1(C)O [Clarithromycin] + CO[C@H]1/C=C/O[C@@]2(C)Oc3c(C)c(O)c4c(O)c(c(/C=N/N5CCN(C)CC5)c(O)c4c3C2=O)NC(=O)/C(C)=C\C=C\[C@H](C)[C@H](O)[C@@H](C)[C@@H](O)[C@@H](C)[C@H](OC(C)=O)[C@@H]1C [Rifampicin]
Settings	Bliss interaction score
B. subtilis 168	0.0788
S. aureus DSM 20231	0.0272
S. aureus Newman	0.0434
S. pneumoniae D39V [1]	0.0654

fitness, S. pneumoniae D39V [2], one replicate
Settings	first compound 0.007812 µg/mL	first compound 0.01562 µg/mL	first compound 0.03125 µg/mL	first compound 0.0625 µg/mL	first compound 0.125 µg/mL	first compound 0.25 µg/mL
partner 0.025 µg/mL	–	–	–	0.395	0.245	0.155
partner 0.05 µg/mL	0.647	0.466	0.293	–	–	–
partner 0.1 µg/mL	0.262	0.213	0.219	–	–	–
partner 0.2 µg/mL	0.122	0.15	0.196	0	0	0

fitness, S. pneumoniae D39V [2]
Settings	first compound 0.0625 µg/mL	first compound 0.07 µg/mL	first compound 0.125 µg/mL	first compound 0.14 µg/mL	first compound 0.25 µg/mL	first compound 0.28 µg/mL
partner 0.025 µg/mL	–	0.161	–	0.109	–	0.121
partner 0.05 µg/mL	0.362	0.17	0.215	0.164	0.108	0.102
partner 0.1 µg/mL	0.177	0.118	0.119	0.0954	0.114	0.138

CC[C@H]1OC(=O)[C@H](C)[C@@H](O[C@H]2C[C@@](C)(OC)[C@@H](O)[C@H](C)O2)[C@H](C)[C@@H](O[C@@H]2O[C@H](C)C[C@H](N(C)C)[C@H]2O)[C@](C)(OC)C[C@@H](C)C(=O)[C@H](C)[C@@H](O)[C@]1(C)O [Clarithromycin] + COc1cccc2c1C(=O)c1c(O)c3c(c(O)c1C2=O)C[C@@](O)(C(=O)CO)C[C@@H]3O[C@H]1C[C@H](N)[C@H](O)[C@H](C)O1 [Doxorubicin]
Settings	Bliss interaction score
B. subtilis 168	0.0718
S. aureus DSM 20231	0.0858
S. aureus Newman	0.105
S. pneumoniae D39V [1]	-0.0578

fitness, S. pneumoniae D39V [2], one replicate
Settings	first compound 0.007812 µg/mL	first compound 0.01562 µg/mL	first compound 0.03125 µg/mL
partner 0.25 µg/mL	0.866	0.825	0.633
partner 0.5 µg/mL	0.841	0.798	0.621
partner 1 µg/mL	0.794	0.777	0.608

fitness, S. pneumoniae D39V [2]
Settings	first compound 0.0625 µg/mL	first compound 0.07 µg/mL	first compound 0.125 µg/mL	first compound 0.14 µg/mL	first compound 0.25 µg/mL	first compound 0.28 µg/mL
partner 0.25 µg/mL	0.457	0.112	0.277	0.0456	0.077	0.0403
partner 0.5 µg/mL	0.495	0.106	0.295	0.0366	0.107	0.0281
partner 1 µg/mL	0.411	0.103	0.188	0.0523	0.0684	0.0955

C[C@@H](O)[C@H]1C(=O)N2C(C(=O)O)=C(SCCNC=N)C[C@H]12 [Imipenem] + O=C1CN(/N=C/c2ccc([N+](=O)[O-])o2)C(=O)N1 [Nitrofurantoin]
Settings	Bliss interaction score
B. subtilis 168	0.0986
S. aureus DSM 20231	0.0253
S. aureus Newman	-0.0377
S. pneumoniae D39V [1]	0.049

fitness, S. pneumoniae D39V [2]
Settings	first compound 0.005 µg/mL	first compound 0.0065 µg/mL	first compound 0.01 µg/mL	first compound 0.013 µg/mL	first compound 0.02 µg/mL	first compound 0.026 µg/mL
partner 1.285 µg/mL	0.947	–	0.967	–	0.97	–
partner 2 µg/mL	–	0.931	–	0.882	–	0.842
partner 2.57 µg/mL	0.946	–	0.944	–	0.955	–
partner 4 µg/mL	–	0.912	–	0.914	–	0.804
partner 8 µg/mL	–	0.763	–	0.728	–	0.72

S. pneumoniae D39V [2], partner 5.14 µg/mL, one replicate
Settings	fitness
first compound 0.005 µg/mL	0.887
first compound 0.01 µg/mL	0.941
first compound 0.02 µg/mL	0.928

CC[C@H]1OC(=O)[C@H](C)[C@@H](O[C@H]2C[C@@](C)(OC)[C@@H](O)[C@H](C)O2)[C@H](C)[C@@H](O[C@@H]2O[C@H](C)C[C@H](N(C)C)[C@H]2O)[C@](C)(OC)C[C@@H](C)C(=O)[C@H](C)[C@@H](O)[C@]1(C)O [Clarithromycin] + Cc1ncc([N+](=O)[O-])n1CCO [Metronidazole]
Settings	Bliss interaction score
B. subtilis 168	0.103
S. aureus DSM 20231	0.118
S. aureus Newman	-0.0393
S. pneumoniae D39V [1]	0.106

fitness, S. pneumoniae D39V [2], one replicate
Settings	first compound 0.007812 µg/mL	first compound 0.01562 µg/mL	first compound 0.03125 µg/mL
partner 1.25 µg/mL	0.927	0.903	0.669
partner 2.5 µg/mL	0.926	0.891	0.692
partner 5 µg/mL	0.917	0.856	0.668

fitness, S. pneumoniae D39V [2]
Settings	first compound 0.0625 µg/mL	first compound 0.07 µg/mL	first compound 0.125 µg/mL	first compound 0.14 µg/mL	first compound 0.25 µg/mL	first compound 0.28 µg/mL
partner 1.073 µg/mL	0.729	–	0.542	–	0.337	–
partner 1.25 µg/mL	–	0.149	–	0.0801	–	0.0663
partner 2.145 µg/mL	0.734	–	0.598	–	0.393	–
partner 2.5 µg/mL	–	0.168	–	0.0889	–	0.101
partner 4.29 µg/mL	0.688	–	0.554	–	0.257	–
partner 5 µg/mL	–	0.178	–	0.114	–	0.0828

C[C@@H](O)[C@H]1C(=O)N2C(C(=O)O)=C(SCCNC=N)C[C@H]12 [Imipenem] + Cc1cc(NS(=O)(=O)c2ccc(N)cc2)no1 [Sulfamethoxazol]
Settings	Bliss interaction score
B. subtilis 168	0.0891
S. aureus DSM 20231	-0.0317
S. aureus Newman	-0.0488
S. pneumoniae D39V [1]	0.066

fitness, S. pneumoniae D39V [2], one replicate
Settings	first compound 0.005 µg/mL	first compound 0.01 µg/mL	first compound 0.02 µg/mL
partner 1 µg/mL	0.993	0.998	0.959
partner 2 µg/mL	0.957	0.924	0.982
partner 4 µg/mL	0.879	0.856	0.859

fitness, S. pneumoniae D39V [2]
Settings	first compound 0.0065 µg/mL	first compound 0.013 µg/mL	first compound 0.026 µg/mL
partner 1 µg/mL	0.96	0.923	0.82
partner 2 µg/mL	0.976	0.932	0.925
partner 4 µg/mL	0.976	0.941	0.917

C[C@@H](O)[C@H]1C(=O)N2C(C(=O)O)=C(SCCNC=N)C[C@H]12 [Imipenem] + CN(C)c1cc(NC(=O)CNC(C)(C)C)c(O)c2c1C[C@H]1C[C@H]3[C@H](N(C)C)C(O)=C(C(N)=O)C(=O)[C@@]3(O)C(O)=C1C2=O [Tigecycline]
Settings	Bliss interaction score
B. subtilis 168	-0.0658
S. aureus DSM 20231	0.0348
S. aureus Newman	-0.0535
S. pneumoniae D39V [1]	0.0689

fitness, S. pneumoniae D39V [2]
Settings	first compound 0.005 µg/mL	first compound 0.0065 µg/mL	first compound 0.01 µg/mL	first compound 0.013 µg/mL	first compound 0.02 µg/mL	first compound 0.026 µg/mL
partner 0.65 µg/mL	0.925	0.992	0.898	0.999	0.932	0.863
partner 1.3 µg/mL	0.922	0.979	0.874	0.893	0.938	0.946
partner 2.6 µg/mL	0.859	0.994	0.87	0.943	0.877	0.956
